Measured values taken from patent US10072025B2, “Ethyl N-boc piperidinyl pyrazolo pyridones as Janus kinase inhibitors” (Merck Sharp & Dohme Corp., priority 2014, dated 2018).

Columns and labels:
JAK1 = JAK1 (Homo sapiens (Human), UniProt P23458); test: Jak Biochemical HTRF Assay (JAK1); conditions: recombinant purified GST-tagged catalytic domain; HTRF; [ATP] 31.8 μM; [E] 1.405 nM
Protocol: (§1) Jak Biochemical HTRF Assay Protocol
(§2) The ability of compounds to inhibit the activity of JAK1, JAK2, JAK3, and Tyk2 was measured using a recombinant purified GST-tagged catalytic domain for each enzyme (Invitrogen JAK1 #M4290, JAK2 #M4290, JAK3 #M4290, Tyk2 #M4290) in an HTRF format biochemical assay. […] The basic assay protocol is as follows: First, 250 nL of diluted compounds in DMSO were dispensed into the wells of a dry 384-well Black plate (Greiner #781076) using a Labcyte Echo 555 acoustic dispenser. Subsequent reagent additions employed an Agilent Bravo. Next, 18 μL of 1.11× enzyme and 1.11× substrate in 1× assay buffer (Invitrogen kinase buffer # PV3189, 2 mM DTT, 0.05% BSA) were added to the wells and shaken and then preincubated for 30 minutes at room temperature to allow compound binding to equilibrate. After equilibration, 2 μL of 10×ATP in 1× assay buffer was added to initiate the kinase reaction and the plates were shaken and then incubated at room temperature for 120 minutes. At the end of the incubation, 20 μL of 2× stop buffer (streptavidin-Dylight 650 (Thermo #84547B/100 mL), Eu-tagged pY20 antibody (Perkin Elmer #AD0067), EDTA, HEPES, and Triton) was added to quench the reaction. Plates were shaken and centrifuged and then incubated 60 minutes at room temperature and then read on a Perkin Elmer Envision (Xex=337 nm, λem=665 and 615 nm, TRF delay time=20 μs). HTRF signal=10,000*665 nm reading/615 nm reading. After normalization to untreated controls, the percent inhibition of the HTRF signal at each compound concentration was calculated. The plot of percent inhibition versus the log of compound concentration was fit with a 4-parameter dose response equation to calculate IC50 values.

JAK2 = JAK2 (Homo sapiens (Human), UniProt O60674); test: Jak Biochemical HTRF Assay (JAK2); conditions: recombinant purified GST-tagged catalytic domain, [ATP] 8.5 μM, [E] 0.052 nM
JAK2, sequence (O60674 849-1124): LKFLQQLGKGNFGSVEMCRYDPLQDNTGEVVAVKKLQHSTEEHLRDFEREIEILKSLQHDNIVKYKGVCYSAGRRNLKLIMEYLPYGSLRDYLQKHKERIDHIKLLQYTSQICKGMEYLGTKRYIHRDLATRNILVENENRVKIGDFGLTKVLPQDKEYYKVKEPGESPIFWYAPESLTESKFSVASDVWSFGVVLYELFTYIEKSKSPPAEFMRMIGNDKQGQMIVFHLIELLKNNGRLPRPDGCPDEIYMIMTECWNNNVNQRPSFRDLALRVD
Protocol: as §1, §2

JAK1, sequence (P23458 875-1153): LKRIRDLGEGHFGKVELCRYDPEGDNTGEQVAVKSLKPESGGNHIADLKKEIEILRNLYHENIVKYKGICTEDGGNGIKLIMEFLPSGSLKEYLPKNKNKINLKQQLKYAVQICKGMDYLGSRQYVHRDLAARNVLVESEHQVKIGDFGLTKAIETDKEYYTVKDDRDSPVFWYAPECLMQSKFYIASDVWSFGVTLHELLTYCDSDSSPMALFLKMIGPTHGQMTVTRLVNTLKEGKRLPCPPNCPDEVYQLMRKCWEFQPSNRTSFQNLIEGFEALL

Row | IC50 (JAK1) | IC50 (JAK2) | SMILES
1 | 0.53 nM | 3.37 nM | CCC1(n2nc(Nc3cccc(CC#N)c3)c3c(=O)[nH]ccc32)CCN(C(=O)OC(C)(C)C)CC1 [Example 2-17, tert-butyl 4-(3-((3-(cyanomethyl)phenyl)amino)-4-oxo-4,5-dihydro-1H-pyrazolo [4,3-c]pyridin-1-yl)-4-ethylpiperidine-1-carboxylate]
2 | 1.13 nM | 1.92 nM | CCC1(n2nc(Nc3ccc(C4CCNCC4)cc3)c3c(=O)[nH]ccc32)CCN(C(=O)OC(C)(C)C)CC1 [Example 2-23, tert-butyl 4-ethyl-4-(4-oxo-3-(4-(piperidin-4-yl)phenylamino)-4,5-dihydropyrazolo[4,3-c]pyridin-1-yl) piperidine-1-carboxylate]
3 | 1.19 nM | 1.44 nM | CCC1(n2nc(Nc3ccc(C(=O)N4CCC(F)(F)CC4)c(C)c3)c3c(=O)[nH]ccc32)CCN(C(=O)OC(C)(C)C)CC1 [Example 2-26, tert-butyl 4-(3-(4-(4,4-difluoropiperidine-1-carbonyl)-3-methylphenylamino)-4-oxo-4,5-dihydropyrazolo [4,3-c]pyridin-1-yl)-4-ethylpiperidine-1-carboxylate]
4 | 1.65 nM | 4.62 nM | CCC1(n2nc(Nc3ccc(C(C)(O)C(F)(F)F)cc3)c3c(=O)[nH]ccc32)CCN(C(=O)OC(C)(C)C)CC1 (stereo not drawn) [Example 2-42, tert-butyl 4-ethyl-4-(4-oxo-3-((4-(1,1,1-trifluoro-2-hydroxypropan-2-yl)phenyl)amino)-4,5-dihydro-1H-pyrazolo[4,3-c]pyridin-1-yl) piperidine-1-carboxylate]
5 | 0.9 nM | 2.91 nM | CCC1(n2nc(Nc3ccc(C(O)C(F)(F)F)cc3)c3c(=O)[nH]ccc32)CCN(C(=O)OC(C)(C)C)CC1 (stereo not drawn) [Example 2-43, tert-butyl 4-ethyl-4-(4-oxo-3-((4-(2,2,2-trifluoro-1-hydroxyethyl)phenyl)amino)-4,5-dihydro-1H-pyrazolo[4,3-c]pyridin-1-yl) piperidine-1-carboxylate]
6 | 0.25 nM | 0.8 nM | CCC1(n2nc(Nc3ccc(C(=O)N4CCOC(=O)C4)c(C)c3)c3c(=O)[nH]ccc32)CCN(C(=O)OC(C)(C)C)CC1 [Example 3-1, tert-butyl-4-ethyl-4-(3-((3-methyl-4-(2-oxomorpholine-4-carbonyl)phenyl)amino)-4-oxo-4,5-dihydro-1H-pyrazolo[4,3-c]pyridin-1-yl)piperidine-1-carboxylate]
7 | 0.99 nM | 1.53 nM | CCC1(n2nc(Nc3ccc(C(=O)N4CCOC5(CCCC5)C4)c(C)c3)c3c(=O)[nH]ccc32)CCN(C(=O)OC(C)(C)C)CC1 [Example 3-3, tert-butyl 4-ethyl-4-(3-{[3-methyl-4-(6-oxa-9-azaspiro[4.5]dec-9-ylcarbonyl)phenyl]amino}-4-oxo-4,5-dihydro-1H-pyrazolo[4,3-c]pyridin-1-yl) piperidine-1-carboxylate]

Further lines, the compound ahead of its results:

Row | SMILES | IC50 (JAK1) | IC50 (JAK2)
8 | CCC1(n2nc(Nc3ccc(C(=O)N4CC5(COC5)C4)c(C)c3)c3c(=O)[nH]ccc32)CCN(C(=O)OC(C)(C)C)CC1 [Example 2-14, tert-butyl 4-ethyl-4-(3-((3-methyl-4-(2-oxa-6-azaspiro[3.3]heptane-6-carbonyl)phenyl)amino)-4-oxo-4,5-dihydro-1H-pyrazolo [4,3-c]pyridin-1-yl) piperidine-1-carboxylate] | 0.3 nM | 0.43 nM
9 | CCC1(n2nc(Nc3ccc(C(=O)N4C[C@H]5C[C@@H]4CO5)c(C)c3)c3c(=O)[nH]ccc32)CCN(C(=O)OC(C)(C)C)CC1 [Example 2-15, tert-butyl 4-(3-((4-((1R,4R)-2-oxa-5-azabicyclo[2.2.1]heptane-5-carbonyl)-3-methylphenyl)amino)-4-oxo-4,5-dihydro-1H-pyrazolo[4,3-c]pyridin-1-yl)-4-ethylpiperidine-1-carboxylate] | 0.4 nM | 0.43 nM
10 | CCC1(n2nc(Nc3ccc(C(=O)N4CCSCC4)c(C)c3)c3c(=O)[nH]ccc32)CCN(C(=O)OC(C)(C)C)CC1 [Example 2-21, tert-butyl 4-ethyl-4-(3-(3-methyl-4-(thiomorpholine-4-carbonyl)phenylamino)-4-oxo-4,5-dihydropyrazolo[4,3-c]pyridin-1-yl) piperidine-1-carboxylate] | 0.84 nM | 0.93 nM
11 | CCC1(n2nc(Nc3ccc(C(=O)N4C[C@@H]5C[C@H]4CO5)c(C)c3)c3c(=O)[nH]ccc32)CCN(C(=O)OC(C)(C)C)CC1 [Example 2-22, tert-butyl 4-(3-(4-((1S,4S)-5-oxa-2-aza-bicyclo[2.2.1]heptane-2-carbonyl)-3-methylphenylamino)-4-oxo-4,5-dihydropyrazolo[4,3-c]pyridin-1-yl)-4-ethylpiperidine-1-carboxylate] | 0.36 nM | 0.44 nM
12 | CCc1cc(Nc2nn(C3(CC)CCN(C(=O)OC(C)(C)C)CC3)c3cc[nH]c(=O)c23)ccc1C(=O)N1CCOCC1 [Example 2-24, tert-butyl 4-ethyl-4-(3-((3-ethyl-4-(morpholine-4-carbonyl)phenyl)amino)-4-oxo-4,5-dihydro-1H-pyrazolo[4,3-c]pyridin-1-yl) piperidine-1-carboxylate] | 0.47 nM | 0.84 nM
13 | CCC1(n2nc(Nc3ccc(C(=O)N4CCSCC4)c(C(F)F)c3)c3c(=O)[nH]ccc32)CCN(C(=O)OC(C)(C)C)CC1 [Example 2-25, tert-butyl 4-(3-(3-(difluoromethyl)-4-(thiomorpholine-4-carbonyl)phenylamino)-4-oxo-4,5-dihydropyrazolo[4,3-c]pyridin-1-yl)-4-ethylpiperidine-1-carboxylate] | 1.73 nM | 2.8 nM
14 | CCC1(n2nc(Nc3ccc(C(=O)N4CCOC[C@H]4C)c(C)c3)c3c(=O)[nH]ccc32)CCN(C(=O)OC(C)(C)C)CC1 [Example 2-28, (R)-tert-butyl-4-ethyl-4-(3-(3-methyl-4-(3-methylmorpholine-4-carbonyl)phenylamino)-4-oxo-4,5-dihydropyrazolo[4,3-c]pyridin-1-yl) piperidine-1-carboxylate] | 0.54 nM | 0.51 nM
15 | CCc1cc(Nc2nn(C3(CC)CCN(C(=O)OC(C)(C)C)CC3)c3cc[nH]c(=O)c23)ccc1C(=O)N1CCSCC1 [Example 2-29, tert-butyl 4-ethyl-4-(3-(3-ethyl-4-(thiomorpholine-4-carbonyl)phenylamino)-4-oxo-4,5-dihydropyrazolo[4,3-c]pyridin-1-yl) piperidine-1-carboxylate] | 1.79 nM | 2.72 nM
16 | CCC1(n2nc(Nc3ccc4c(c3)CN(C3CCN(C)CC3)S4(=O)=O)c3c(=O)[nH]ccc32)CCN(C(=O)OC(C)(C)C)CC1 [Example 2-30, tert-butyl 4-ethyl-4-(3-((2-(1-methylpiperidin-4-yl)-1,1-dioxido-2,3-dihydrobenzo [d]isothiazol-5-yl)amino)-4-oxo-4,5-dihydro-1H-pyrazolo [4,3-c]pyridin-1-yl) piperidine-1-carboxylate] | 0.29 nM | 0.36 nM
17 | CCC1(n2nc(Nc3ccc(C(=O)N4CCCC4)c(C)c3)c3c(=O)[nH]ccc32)CCN(C(=O)OC(C)(C)C)CC1 [Example 2-33, tert-butyl 4-ethyl-4-(3-(3-methyl-4-(pyrrolidine-1-carbonyl)phenylamino)-4-oxo-4,5-dihydropyrazolo[4,3-c]pyridin-1-yl) piperidine-1-carboxylate] | 0.73 nM | 1.06 nM
18 | CCC1(n2nc(Nc3ccnc(F)c3)c3c(=O)[nH]ccc32)CCN(C(=O)OC(C)(C)C)CC1 [Example 2-40, tert-butyl 4-ethyl-4-(3-(2-fluoropyridin-4-ylamino)-4-oxo-4,5-dihydropyrazolo[4,3-c]pyridin-1-yl) piperidine-1-carboxylate] | 0.38 nM | 5.24 nM
19 | CCC1(n2nc(Nc3ccc(C(C)(OC)C(F)(F)F)cc3)c3c(=O)[nH]ccc32)CCN(C(=O)OC(C)(C)C)CC1 (stereo not drawn) [Example 2-41] | 4.4 nM | 6.87 nM
20 | CCC1(n2nc(Nc3ccc(C(=O)O)c(C)c3)c3c(=O)[nH]ccc32)CCN(C(=O)OC(C)(C)C)CC1 [Example 2-44, 4-((1-(1-(tert-butoxycarbonyl)-4-ethylpiperidin-4-yl)-4-oxo-4,5-dihydro-1H-pyrazolo [4,3-c]pyridin-3-yl)amino)-2-methylbenzoic acid] | 0.23 nM | 2.1 nM
21 | CCC1(n2nc(Nc3ccc(C(=O)N4CCOC(C)(C)C4)c(C)c3)c3c(=O)[nH]ccc32)CCN(C(=O)OC(C)(C)C)CC1 [Example 3-2, tert-butyl 4-[3-({4-[(2,2-dimethylmorpholin-4-yl)carbonyl]-3-methylphenyl}amino)-4-oxo-4,5-dihydro-1H-pyrazolo[4,3-c]pyridin-1-yl]-4-ethylpiperidine-1-carboxylate] | 0.61 nM | 0.75 nM
